Source: patent US20240090547A1, “SWEETENER COMPOSITIONS COMPRISING MOGROSIDES AND USES THEREOF” (Firmenich Incorporated, priority 2021, published 2024)

Legend:
Assay type in all cases: in vivo, human
[1] = system: panel of flavorists; experiment: Additional sensory testing for lemon-flavored (lemon-lime) beverage, flavorist panel; settings: 600 ppm mogrosides, 0 to 10 scale, letter in parentheses = Duncan's test group; for Sweet Linger: aftertaste, after expectoration; for Bitterness / Mouthfeel/Thickness / Peak Sweetness / Upfront Sweetness: in-mouth
Protocol: A panel of flavorists at three locations evaluated lemon-lime beverage various mogrosides at a concentration of 600 ppm mogrosides for in-mouth attributes (peak sweetness, upfront sweetness, bitterness, and mouthfeel/thickness) and aftertaste attributes (sweet taste linger), on a 0 to 10 scale. The in-mouth attributes were evaluated while holding the sample in the mouth, while the aftertaste attributes were evaluated after expectoration.

[2] = system: panel of flavorists; experiment: Additional sensory testing for vanilla milk, flavorist panel; settings: 400 ppm mogrosides, 0 to 10 scale, letter in parentheses = Duncan's test group; for Sweet Linger: aftertaste, after expectoration; for Bitterness / Mouthfeel/Thickness / Peak Sweetness / Upfront Sweetness: in-mouth
Protocol: A panel of flavorists at three locations evaluated vanilla milk containing various mogrosides at a concentration of 400 ppm mogrosides for in-mouth attributes (peak sweetness, upfront sweetness, bitterness, and mouthfeel/thickness) and aftertaste attributes (sweet taste linger), on a 0 to 10 scale. The in-mouth attributes were evaluated while holding the sample in the mouth, while the aftertaste attributes were evaluated after expectoration. The data was analyzed using Duncan's new multiple range test and the scores are provided in the data below in parentheses.

[3] = system: expert panelists; experiment: Expert panelists' comparison of mogrosides with stevia; settings: 'Examples 4 and 5', in words

For `C[C@H](CC[C@@H](O[C@@H]1O[C@H](CO[C@H]2O[C@H](CO)[C@@H](O)[C@H](O)[C@H]2O)[C@@H](O)[C@H](O)[C@H]1O[C@@H]1O[C@H](CO)[C@@H](O)[C@H](O)[C@H]1O)C(C)(C)O)[C@H]1CC[C@@]2(C)[C@]3(C)CC=C4[C@@H](CC[C@H](O[C@@H]5O[C@H](CO)[C@@H](O)[C@H](O)[C@H]5O)C4(C)C)[C@]3(C)[C@H](O)C[C@]12C` [Siratose], the “Sweet Linger” value [1] was 6.143 (a), the Bitterness [1] was 1.357 (a) and the Mouthfeel/Thickness [1] was 4.143 (a). The “Peak Sweetness” value [1] was 8.429 (a), the “Upfront Sweetness” value [1] was 6.571 (a) and the “Sweet Linger” value [2] was 6.375 (a). For the same compound, the Bitterness [2] was 1.750 (a), the Mouthfeel/Thickness [2] was 5.375 (a) and the “Peak Sweetness” value [2] was 8.000 (a). The “Upfront Sweetness” value [2] was 6.625 (a), the “bitter aftertaste compared with stevia” value [3] was “lower bitter aftertaste” and the “licorice aftertaste compared with stevia” value [3] was “lower licorice aftertaste”. For the same compound, the “mouthfeel compared with stevia” value [3] was “better mouthfeel”.

`C[C@H](CC[C@@H](O[C@@H]1O[C@H](CO[C@@H]2O[C@H](CO)[C@@H](O)[C@H](O)[C@H]2O)[C@@H](O)[C@H](O)[C@H]1O[C@@H]1O[C@H](CO)[C@@H](O)[C@H](O)[C@H]1O)C(C)(C)O)[C@H]1CC[C@@]2(C)[C@@H]3CC=C4[C@@H](CC[C@H](O[C@@H]5O[C@H](CO)[C@@H](O[C@@H]6O[C@H](CO)[C@@H](O)[C@H](O)[C@H]6O)[C@H](O)[C@H]5O)C4(C)C)[C@]3(C)[C@H](O)C[C@]12C` [Isomogroside V] was tested, and the “Sweet Linger” value [1] was 4.857 (ab), the Bitterness [1] was 2.286 (a) and the Mouthfeel/Thickness [1] was 2.571 (b). The “Peak Sweetness” value [1] was 5.571 (bc), the “Upfront Sweetness” value [1] was 4.000 (b) and the “Sweet Linger” value [2] was 4.625 (b). For the same compound, the Bitterness [2] was 0.875 (b), the Mouthfeel/Thickness [2] was 4.875 (ab) and the “Peak Sweetness” value [2] was 6.188 (b). For the same compound, the “Upfront Sweetness” value [2] was 5.125 (b), the “bitter aftertaste compared with stevia” value [3] was “lower bitter aftertaste” and the “licorice aftertaste compared with stevia” value [3] was “lower licorice aftertaste”. For the same compound, the “mouthfeel compared with stevia” value [3] was “better mouthfeel”.

With Isomogroside IVE the “Sweet Linger” value [1] was 3.429 (c), the Bitterness [1] was 1.857 (a) and the Mouthfeel/Thickness [1] was 2.714 (b). The “Peak Sweetness” value [1] was 4.857 (c), the “Upfront Sweetness” value [1] was 3.571 (b) and the “Sweet Linger” value [2] was 4.563 (b). For the same compound, the Bitterness [2] was 1.313 (ab), the Mouthfeel/Thickness [2] was 4.125 (b) and the “Peak Sweetness” value [2] was 5.938 (c). For the same compound, the “Upfront Sweetness” value [2] was 5.125 (b), the “bitter aftertaste compared with stevia” value [3] was “lower bitter aftertaste” and the “licorice aftertaste compared with stevia” value [3] was “lower licorice aftertaste”. For the same compound, the “mouthfeel compared with stevia” value [3] was “better mouthfeel”.
